Drawing on patent publication US4349672A, “Cephalosporin derivatives” (Hoffmann-La Roche Inc., priority 1979, dated 1982), this text covers MIC for 2 molecules.

Structures can show the parent of a compound that is named as a salt.

Holding throughout (assay): Activity in vitro: minimum inhibitory concentration
Type in all cases: cell-based

For assay [1], the system named is Acinetobacter anitratus. To be noted: Acinetobacter calcoaceticus, gram negative. An excerpt:
(§1) Activity in vitro: Minimum inhibitory concentration (μg/ml)

In assay [2] the test system is Streptococcus pyogenes. To be noted: gram positive.
Source text: as §1

The test system of assay [3] is Enterobacter cloacae.
Source text: as §1

Assay [4] has as its system Escherichia coli.
Source text: as §1

For assay [5], the system named is Klebsiella pneumoniae.
Source text: as §1

Assay [6] has as its system Proteus inconstans. To be noted: Providencia alcalifaciens, gram negative.
Source text: as §1

For assay [7], the system named is Enterobacter aerogenes. To be noted: Klebsiella aerogenes.
Source text: as §1

For assay [8], the system named is Proteus rettgeri. To be noted: Providencia rettgeri, gram negative.
Source text: as §1

Assay [9] deals with Serratia marcescens.
Source text: as §1

The test system of assay [10] is Proteus vulgaris.
Source text: as §1

In assay [11] the test system is Citrobacter freundii.
Source text: as §1

For assay [12], the system named is Proteus mirabilis.
Source text: as §1

Where [13] appears, read: Enterobacter cloacae Strain 1, gram negative.
Setting [14] is: Enterobacter cloacae Strain 2, gram negative.
[15] abbreviates: Escherichia coli Strain 1, gram negative.
Setting [16] is: Escherichia coli Strain 2, gram negative.
Where [17] appears, read: Escherichia coli Strain 3, gram negative.
Where [18] appears, read: Escherichia coli Strain 4, gram negative.
[19] abbreviates: Klebsiella pneumoniae Strain 1, gram negative.
The mark [20] stands for this setting: Klebsiella pneumoniae Strain 2, gram negative.
Where [21] appears, read: Klebsiella pneumoniae Strain 3, gram negative.
[22] abbreviates: Enterobacter aerogenes Strain 1, gram negative.
[23] abbreviates: Enterobacter aerogenes Strain 2, gram negative.
Setting [24] is: Serratia marcescens Strain 1, gram negative.
Where [25] appears, read: Serratia marcescens Strain 2, gram negative.
The mark [26] stands for this setting: Proteus vulgaris Strain 1, gram negative.
[27] abbreviates: Proteus vulgaris Strain 2, gram negative.
Where [28] appears, read: Proteus vulgaris Strain 3, gram negative.
[29] abbreviates: Citrobacter freundii Strain 1, gram negative.
The mark [30] stands for this setting: Citrobacter freundii Strain 2, gram negative.
Where [31] appears, read: Proteus mirabilis Strain 1, gram negative.
Setting [32] is: Proteus mirabilis Strain 2, gram negative.

For the molecule `CO/N=C(\C(=O)N[C@@H]1C(=O)N2C(C(=O)O)=C(CSc3nc(=O)c(O)nn3C)C[S@+]([O-])[C@H]12)c1csc(N)n1` [Derivative A, disodium salt of (6R,7R)-7-[2-(2-amino-4-thiazolyl)-2-[(Z)-methoxyimino]acetamido]-3-[[(2,5-dihydro-6-hydroxy-2-methyl-5-oxo-as-triazin-3-yl)thio]methyl]-8-oxo-5-thia-1-azabicyclo[4.2.0]oct-2-ene-2-carboxylic acid 5-(s)-oxide], the MIC is 25 µg/mL in assay [1]; 1.6 µg/mL in assay [2]; 3.1 µg/mL in assay [3] (setting [13]); 0.19 µg/mL in assay [3] (setting [14]); 0.025 µg/mL in assay [4] (setting [15]); 0.19 µg/mL in assay [4] (setting [16]). Also, the MIC was 0.1 µg/mL in [4] (setting [17]); 0.1 µg/mL in [4] (setting [18]); 0.1 µg/mL in [5] (setting [19]); 0.025 µg/mL in assay [5] (setting [20]); 0.1 µg/mL in assay [5] (setting [21]); at most 0.006 µg/mL in assay [6]. For the same molecule, the MIC in assay [7] (setting [22]) was 0.19 µg/mL; in assay [7] (setting [23]), 0.1 µg/mL; in assay [8] it was at most 0.006 µg/mL; in [9] (setting [24]) it was 0.39 µg/mL; in assay [9] (setting [25]), 0.19 µg/mL; in assay [10] (setting [26]), 0.1 µg/mL. The MIC is 0.1 µg/mL in [10] (setting [27]); 0.05 µg/mL in assay [10] (setting [28]); 0.19 µg/mL in [11] (setting [29]); 0.05 µg/mL in assay [11] (setting [30]); 0.025 µg/mL in assay [12] (setting [31]); 0.39 µg/mL in [12] (setting [32]).

On to `CO/N=C(\C(=O)N[C@@H]1C(=O)N2C(C(=O)O)=C(CSc3nc(=O)c(O)nn3C)CS(=O)(=O)[C@H]12)c1csc(N)n1` [Derivative B, disodium salt of (6R,7R)-7-[2-(2-amino-4-thiazolyl)-2-[(Z)-methoxyimino]acetamido]-3-[[(2,5-dihydro-6-hydroxy-2-methyl-5-oxo-as-triazin-3-yl)thio]methyl]-8-oxo-5-thia-1-azabicyclo[4.2.0]oct-2-ene-2-carboxylic acid 5,5-dioxide], for which the MIC in assay [1] is 100 µg/mL; in assay [2] it was 3.1 µg/mL; in assay [3] (setting [13]), 6.3 µg/mL; in assay [3] (setting [14]), 0.39 µg/mL; in assay [4] (setting [15]), 0.05 µg/mL; in assay [4] (setting [16]), 0.39 µg/mL. The MIC in assay [4] (setting [17]) is 0.19 µg/mL; in assay [4] (setting [18]), 0.39 µg/mL; in assay [5] (setting [19]) it was 0.39 µg/mL; in assay [5] (setting [20]) it was 0.19 µg/mL; in assay [5] (setting [21]), 0.19 µg/mL; in assay [6], 0.025 µg/mL. In addition, the MIC in assay [7] (setting [22]) was determined as 0.39 µg/mL; in assay [7] (setting [23]), 0.1 µg/mL; in [8], 0.05 µg/mL; in [9] (setting [24]) it was 1.6 µg/mL; in assay [9] (setting [25]), 0.78 µg/mL; in assay [10] (setting [26]), 0.39 µg/mL. Also, the minimum inhibitory concentration (MIC) was 0.19 µg/mL in [10] (setting [27]); 0.19 µg/mL in assay [10] (setting [28]); 0.19 µg/mL in assay [11] (setting [29]); 0.19 µg/mL in assay [11] (setting [30]); 0.1 µg/mL in [12] (setting [31]); 0.78 µg/mL in assay [12] (setting [32]).
